# According to patent US12660819B2, “Herbicidal derivatives” (SYNGENTA CROP PROTECTION AG, priority 2020, dated 2026):
# How the values were obtained:
# Format in all cases: in vivo
# Setaria faberi (SETFA) [1] = assay: Pre-emergence Test (glasshouse, percentage damage to the plant); settings: 1000 g/ha unless otherwise stated, five-point scale
# [2] = system: Echinochloa crus-galli (ECHCG); assay: as above; settings: 1000 g/ha unless otherwise stated, five-point scale
# [3] = system: Ipomoea hederacea (IPOHE); assay: Post-emergence Test (glasshouse, percentage damage to the plant); settings: post-emergence spray, 1000 g/ha unless otherwise stated, evaluated after 13 days
# Description: (§1) Seeds of a variety of test species are sown in standard soil in pots (Amaranthus retoflexus (AMARE), Solanum nigrum (SOLNI), Setaria faberi (SETFA), Lolium perenne (LOLPE), Echinochloa crus-galli (ECHCG), Ipomoea hederacea (IPOHE), Abutilon theophrasti (ABUTH), Zea mays (ZEAMX), Amaranthus palmeri (AMAPA). After 8 days cultivation under controlled conditions in a glasshouse (at 24° C./16° C., day/night; 14 hours light; 65% humidity), the plants are sprayed with an aqueous spray solution derived from the formulation of the technical active ingredient in acetone/water (50:50) solution containing 0.5% Tween 20 (polyoxyethelyene sorbitan monolaurate, CAS RN 9005-64-5). Compounds are applied at 1000 g/ha unless otherwise stated. The test plants are then grown in a glasshouse under controlled conditions in a glasshouse (at 24° C./16° C., day/night; 14 hours light; 65% humidity) and watered twice daily. After 13 days the test is evaluated for the percentage damage caused to the plant. The biological activities are shown in the following table on a five-point scale (5=81-100%; 4=61-80%; 3=41-60%; 2=21-40%; 1=0-20%).
# Zea mays (ZEAMX) [4] = assay: as above; settings: post-emergence spray, 1000 g/ha unless otherwise stated, evaluated after 13 days
# Description: as §1
# Setaria faberi (SETFA) [5] = assay: as above; settings: post-emergence spray, 1000 g/ha unless otherwise stated, evaluated after 13 days
# Description: as §1
# [6] = system: Amaranthus retoflexus (AMARE); assay: as above; settings: post-emergence spray, 1000 g/ha unless otherwise stated, evaluated after 13 days
# Description: as §1
# [7] = system: Ipomoea hederacea (IPOHE); assay: Pre-emergence Test (glasshouse, percentage damage to the plant); settings: 1000 g/ha unless otherwise stated, five-point scale
# [8] = system: Amaranthus retoflexus (AMARE); assay: as above; settings: 1000 g/ha unless otherwise stated, five-point scale
# [9] = system: Abutilon theophrasti (ABUTH); assay: as above; settings: 1000 g/ha unless otherwise stated, five-point scale
# Zea mays (ZEAMX) [10] = assay: as above; settings: 1000 g/ha unless otherwise stated, five-point scale
Compound,"percentage damage to the plant, SETFA (Setaria faberi (SETFA) [1])","percentage damage to the plant, ECHCG [2]","Post-emergence Test IPOHE, percentage damage to the plant (five-point scale) [3]","Post-emergence Test ZEAMX, percentage damage to the plant (five-point scale) (Zea mays (ZEAMX) [4])","Post-emergence Test SETFA, percentage damage to the plant (five-point scale) (Setaria faberi (SETFA) [5])","Post-emergence Test AMARE, percentage damage to the plant (five-point scale) [6]","percentage damage to the plant, IPOHE [7]","percentage damage to the plant, AMARE [8]","percentage damage to the plant, ABUTH [9]","percentage damage to the plant, ZEAMX (Zea mays (ZEAMX) [10])"
"CCn1c(C)c(-c2ccc(C(F)(F)F)cc2)c(=O)c(C(=O)O)c1-c1ccnc(Cl)c1 [Compound 140, 2-(2-chloro-4-pyridyl)-1-ethyl-6-methyl-4-oxo-5-[4-(trifluoromethyl)phenyl] pyridine-3-carboxylic acid]",2 (2=21-40%),2 (2=21-40%),3 (3=41-60%),1 (1=0-20%),4 (4=61-80%),1 (1=0-20%),1 (1=0-20%),1 (1=0-20%),1 (1=0-20%),0
"CCn1c(C)c(-c2cccc(C(F)(F)F)c2)c(=O)c(C(=O)O)c1-c1ccnc(Cl)c1 [Compound 145, 2-(2-chloro-4-pyridyl)-1-ethyl-6-methyl-4-oxo-5-[3-(trifluoromethyl)phenyl] pyridine-3-carboxylic acid]",3 (3=41-60%),2 (2=21-40%),2 (2=21-40%),1 (1=0-20%),3 (3=41-60%),1 (1=0-20%),0,1 (1=0-20%),1 (1=0-20%),0
"CCn1c(-c2ccc(Cl)c(Cl)c2)c(C(=O)OC)c(=O)c(-c2ccc(Cl)cc2)c1C(F)(F)F [Compound 169, methyl 5-(4-chlorophenyl)-2-(3,4-dichlorophenyl)-1-ethyl-4-oxo-6-(trifluoromethyl) pyridine-3-carboxylate]",0,0,0,1 (1=0-20%),0,1 (1=0-20%),0,0,0,0
"CCn1c(C)c(-c2ccc(C(F)(F)F)c(Cl)c2)c(=O)c(C(=O)O)c1-c1ccc(Cl)cc1 [Compound 170, 2-(4-chlorophenyl)-5-[3-chloro-4-(trifluoromethyl)phenyl]-1-ethyl-6-methyl-4-oxo-pyridine-3-carboxylic acid]",0,0,3 (3=41-60%),2 (2=21-40%),1 (1=0-20%),5 (5=81-100%),0,1 (1=0-20%),0,0
"CCn1c(C)c(-c2ccc(C(F)(F)F)c(Cl)c2)c(=O)c(C(=O)O)c1-c1ccc(Cl)cc1 [Compound 171, 2-(4-chlorophenyl)-5-[3-chloro-4-(trifluoromethyl)phenyl]-1-ethyl-6-methyl-4-oxo-pyridine-3-carboxylic acid]",0,1 (1=0-20%),4 (4=61-80%),2 (2=21-40%),3 (3=41-60%),3 (3=41-60%),1 (1=0-20%),0,0,0
"CCn1c(C)c(-c2cccc(Cl)c2Cl)c(=O)c(C(=O)O)c1-c1ccc(Cl)cc1 [Compound 172, 2-(4-chlorophenyl)-5-(2,3-dichlorophenyl)-1-ethyl-6-methyl-4-oxo-pyridine-3-carboxylic acid]",3 (3=41-60%),3 (3=41-60%),4 (4=61-80%),2 (2=21-40%),4 (4=61-80%),2 (2=21-40%),1 (1=0-20%),1 (1=0-20%),1 (1=0-20%),0
"CCn1c(C)c(-c2cc(C(F)(F)F)ccc2F)c(=O)c(C(=O)O)c1-c1ccc(Cl)cc1 [Compound 177, 2-(4-chlorophenyl)-1-ethyl-5-[2-fluoro-5-(trifluoromethyl)phenyl]-6-methyl-4-oxo-pyridine-3-carboxylic acid]",2 (2=21-40%),1 (1=0-20%),3 (3=41-60%),3 (3=41-60%),4 (4=61-80%),4 (4=61-80%),3 (3=41-60%),1 (1=0-20%),3 (3=41-60%),0
"CCn1c(C)c(-c2cccc(C(F)(F)F)c2F)c(=O)c(C(=O)O)c1-c1ccc(Cl)cc1 [Compound 181, 2-(4-chlorophenyl)-1-ethyl-5-[2-fluoro-3-(trifluoromethyl)phenyl]-6-methyl-4-oxo-pyridine-3-carboxylic acid]",5 (5=81-100%),4 (4=61-80%),2 (2=21-40%),1 (1=0-20%),3 (3=41-60%),3 (3=41-60%),4 (4=61-80%),1 (1=0-20%),4 (4=61-80%),2 (2=21-40%)
"CCn1c(C)c(-c2cc(C(F)(F)F)ccc2Cl)c(=O)c(C(=O)O)c1-c1ccc(Cl)cc1 [Compound 183, 2-(4-chlorophenyl)-5-[2-chloro-5-(trifluoromethyl)phenyl]-1-ethyl-6-methyl-4-oxo-pyridine-3-carboxylic acid]",0,0,3 (3=41-60%),3 (3=41-60%),2 (2=21-40%),3 (3=41-60%),0,0,0,0
"CCn1c(C)c(-c2ccc(Cl)cc2OC)c(=O)c(C(=O)O)c1-c1ccc(Cl)cc1 [Compound 184, 5-(4-chloro-2-methoxy-phenyl)-2-(4-chlorophenyl)-1-ethyl-6-methyl-4-oxo-pyridine-3-carboxylic acid]",1 (1=0-20%),1 (1=0-20%),3 (3=41-60%),3 (3=41-60%),5 (5=81-100%),4 (4=61-80%),0,1 (1=0-20%),1 (1=0-20%),0
"CCn1c(C)c(-c2cc(Cl)ccc2Cl)c(=O)c(C(=O)O)c1-c1ccc(Cl)cc1 [Compound 185, 2-(4-chlorophenyl)-5-(2,5-dichlorophenyl)-1-ethyl-6-methyl-4-oxo-pyridine-3-carboxylic acid]",0,0,2 (2=21-40%),1 (1=0-20%),3 (3=41-60%),3 (3=41-60%),0,0,0,0
